pKd: −log10 of the molar value.
Tests used:
[1] = target: T1, JAK2 (JH1domain-catalytic, Y1007F, Y1008F) kinase (Homo sapiens, UniProt O60674, Y1007F/Y1008F); assay: JAK2 Binding Assay
T1 construct: JAK2 (JH1domain-catalytic, Y1007F, Y1008F) kinase was expressed as N-terminal fusion; made in house; host or cells: transiently transfected HEK293 cells
Protocol: JAK2 (JH1domain-catalytic, Y1007F, Y1008F) kinase was expressed as N-terminal fusion to the DNA binding domain of NFkB in transiently transfected HEK293 cells and subsequently tagged with DNA for qPCR detection. Streptavidin-coated magnetic beads were treated with biotinylated small molecule ligands for 30 minutes at room temperature to generate affinity resins for kinase assays. The liganded beads were blocked with excess biotin and washed with blocking buffer (SeaBlock (Pierce), 1% BSA, 0.05% Tween 20, 1 mmol/L DTT) to remove unbound ligand and to reduce nonspecific phage binding. Binding reactions were assembled by combining kinases, liganded affinity beads, and test compounds in 1× binding buffer (1×PBS, 0.05% Tween 20, 0.1% BSA, 1 mmol/L DTT). Test compound was prepared as 111× stocks in 100% DMSO and directly diluted into the assay wells. All reactions were performed in polypropylene 384-well plates in a final volume of 0.02 mL. The assay plates were incubated at room temperature with shaking for 1 hour and the affinity beads were washed with wash buffer (1×PBS, 0.05% Tween 20). The beads were then re-suspended in elution buffer (1×PBS, 0.05% Tween 20, 0.5 μmol/L non-biotinylated affinity ligand) and incubated at room temperature with shaking for 30 minutes. The kinase concentration in the eluate was measured by qPCR.

TYK2 = target: T2, TYK2 (Homo sapiens, UniProt P29597); assay: JAK Family Selectivity Assay (TYK2 vs JAK2 binding affinity); details: selectivity over JAK2
T2 construct: made in house; host or cells: E. coli (BL21-derived, T7 phage display) or HEK-293
Protocol: Provided compounds are evaluated for selectivity by comparing their JAK2 binding affinity (Kd) in the above JAK2 Binding Assay with their binding affinity (Kd) for one or more other kinases. Binding affinity for other kinases is determined as follows: Kinase-tagged T7 phage strains are prepared in an E. coli host derived from the BL21 strain. E. coli are grown to log-phase and infected with T7 phage and incubated with shaking at 32° C. until lysis. The lysates are centrifuged and filtered to remove cell debris. The remaining kinases are produced in HEK-293 cells and subsequently tagged with DNA for qPCR detection. Streptavidin-coated magnetic beads are treated with biotinylated small molecule ligands for 30 minutes at room temperature to generate affinity resins for kinase assays. The liganded beads are blocked with excess biotin and washed with blocking buffer (SeaBlock (Pierce), 1% BSA, 0.05% Tween 20, 1 mM DTT) to remove unbound ligand and to reduce non-specific binding. Binding reactions are assembled by combining kinases, liganded affinity beads, and test compounds in 1× binding buffer (20% SeaBlock, 0.17×PBS, 0.05% Tween 20, 6 mM DTT). Test compounds are prepared as 111× stocks in 100% DMSO. Kds are determined using an 11-point 3-fold compound dilution series with three DMSO control points. […] The kinase concentration in the eluates is measured by qPCR. […]

[2] = Interconversion slurry experiments; details: slurry EtOH:H2O (90:10), 65° C.; material with small peak at ˜8.0 °2θ
Protocol: Mixtures of Form H and Form I with Form B were utilized in these interconversion slurry experiments. […] The interconversion slurries were performed at ambient and elevated (65° C.) temperatures in various solvents and solvent mixtures.

T2 sequence (P29597 whole entry): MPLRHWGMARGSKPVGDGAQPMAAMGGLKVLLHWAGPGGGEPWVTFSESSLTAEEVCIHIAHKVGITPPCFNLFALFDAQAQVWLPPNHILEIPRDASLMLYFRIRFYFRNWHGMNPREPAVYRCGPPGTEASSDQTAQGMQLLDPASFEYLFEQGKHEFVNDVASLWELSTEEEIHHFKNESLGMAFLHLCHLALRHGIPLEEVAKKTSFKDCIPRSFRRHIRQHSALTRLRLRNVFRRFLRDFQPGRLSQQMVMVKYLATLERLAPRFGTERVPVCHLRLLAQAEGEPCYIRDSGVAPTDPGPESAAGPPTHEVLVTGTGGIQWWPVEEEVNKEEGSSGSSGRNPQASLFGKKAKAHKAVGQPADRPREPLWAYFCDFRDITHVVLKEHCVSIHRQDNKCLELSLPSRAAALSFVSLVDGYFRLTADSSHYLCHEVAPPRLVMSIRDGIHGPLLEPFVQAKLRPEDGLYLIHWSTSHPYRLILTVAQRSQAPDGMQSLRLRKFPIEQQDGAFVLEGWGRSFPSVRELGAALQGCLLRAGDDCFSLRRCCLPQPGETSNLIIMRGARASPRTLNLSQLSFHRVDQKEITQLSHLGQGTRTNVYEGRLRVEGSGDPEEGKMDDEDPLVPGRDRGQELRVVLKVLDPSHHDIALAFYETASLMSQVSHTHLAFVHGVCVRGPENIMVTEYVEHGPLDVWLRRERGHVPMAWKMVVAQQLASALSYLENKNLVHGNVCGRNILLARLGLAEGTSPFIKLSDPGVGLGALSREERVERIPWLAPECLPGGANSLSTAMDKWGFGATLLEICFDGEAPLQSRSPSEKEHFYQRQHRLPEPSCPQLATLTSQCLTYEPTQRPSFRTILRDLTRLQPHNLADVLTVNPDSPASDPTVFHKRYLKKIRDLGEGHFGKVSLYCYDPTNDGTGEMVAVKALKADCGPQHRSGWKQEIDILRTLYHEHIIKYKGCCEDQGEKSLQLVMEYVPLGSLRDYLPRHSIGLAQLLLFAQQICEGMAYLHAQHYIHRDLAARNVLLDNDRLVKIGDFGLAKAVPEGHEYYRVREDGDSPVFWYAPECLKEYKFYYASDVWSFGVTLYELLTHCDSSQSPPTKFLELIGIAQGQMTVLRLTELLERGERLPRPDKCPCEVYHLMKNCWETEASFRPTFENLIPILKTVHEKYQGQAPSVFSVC
T1 sequence (O60674 849-1124 Y1007F/Y1008F limits assumed): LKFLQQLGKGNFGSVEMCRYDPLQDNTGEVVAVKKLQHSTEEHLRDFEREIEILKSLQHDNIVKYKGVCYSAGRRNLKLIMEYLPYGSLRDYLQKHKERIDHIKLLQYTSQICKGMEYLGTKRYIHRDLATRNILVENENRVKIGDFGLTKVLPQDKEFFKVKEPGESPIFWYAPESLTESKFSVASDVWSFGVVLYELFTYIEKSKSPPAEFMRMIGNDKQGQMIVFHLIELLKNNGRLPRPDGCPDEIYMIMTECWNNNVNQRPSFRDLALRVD

## CN(C)C(=O)Nc1cc(Oc2cnc3nc(Nc4cc(C(F)(F)F)cn(C)c4=O)n(C)c3c2C#N)ccn1 [Compound 1, 3-(4-((7-cyano-1-methyl-2-((1-methyl-2-oxo-5-(trifluoromethyl)-1,2-dihydropyridin-3-yl)amino)-1H-imidazo[4,5-b]pyridin-6-yl)oxy)pyridin-2-yl)-1,1-dimethylurea]
[1]
  pKd: > 8.00
TYK2
  TYK2/JAK2 Kd/Kd ratio: C (Kd/Kd ratio<300 and ≥100)
[2]
  degradation by HPLC analysis: small amount of degradation

## CCN1CCN(Cc2ccc(Nc3nc4ccc(Oc5ccnc(NC(C)=O)c5)cc4n3C)cc2C(F)(F)F)CC1 [Compound R-1, reference compound]
TYK2
  TYK2/JAK2 Kd/Kd ratio: C (Kd/Kd ratio<300 and ≥100)

— patent US20240368157A1, “FORMS AND COMPOSITIONS OF A JAK2 INHIBITOR” (Ajax Therapeutics, Inc., priority 2023, published 2024)
